{"source": "patent US20220031611A1", "about": "“IMMUNOSUPPRESSIVE DOSAGE FORMS AND METHODS OF USE” (Gemini Laboratories, LLC, priority 2018, published 2022)", "assay": "Storage stability: % assay of Tacrolimus", "format": "physicochemical", "conditions": "active pharmaceutical ingredient (API) lot, comparator", "source_text": "The pharmaceutical formulations disclosed herein may comprise oral formulations having improved solubility and/or stability profiles. The formulations may be suitable for oral delivery, for example via a solution or suspension. The formulations orally administrated via a solution or suspension can be bioequivalent to formulations administered via oral capsules, or any other administration route. The formulations disclosed herein are stable under standard storage conditions or accelerated conditions. The total amount of impurities in the formulations may be not more than about 0.1 to 3%, and standard storage conditions may comprise a temperature of about 20 to 25° C. (i.e., room temperature) and no more than about 40% Relative Humidity (RH). In one embodiment, the formulations disclosed herein are stable at room temperature for 18 to 24 months or longer. The stability of a formulation according to the present disclosure can be determined, for example, by measuring the physical state of the formulation, including the viscosity and presence of any discoloration and chemical stability by measuring assay of API & related compound. Tables 4 and 5 present stability characteristics of the compositions provided in Examples 1 & 2 above. The following Tables 8-9 show purity of a Tacrolimus oral solution of 1 mg/ml as a percent assay, based on the batch descriptions in Table 7. […]", "data": [{"smiles": "C=CC[C@@H]1/C=C(\\C)C[C@H](C)C[C@H](OC)[C@H]2O[C@@](O)(C(=O)C(=O)N3CCCC[C@H]3C(=O)O[C@H](/C(C)=C/[C@@H]3CC[C@@H](O)[C@H](OC)C3)[C@H](C)[C@@H](O)CC1=O)[C@H](C)C[C@@H]2OC", "note": "[API_Lot # DMP (079)-38, Tacrolimus]", "values": [{"measurement": "% Assay", "value": 97.1, "unit": "%"}]}]}
